Source: patent US12534457B2, “Heteroaryl derivative compounds, and uses thereof” (Voronoi Inc., priority 2021, dated 2026)

System: Ba/F3 cells expressing EGFR Del19/C797S (EGFR DC)
Assay: Proliferation inhibitory activity, Ba/F3 cells expressing EGFR Del19/C797S (CellTiter-Glo)
Type: cell-based
Settings: 72 hours of compound treatment
Experimental: The following experiments were performed to evaluate the inhibitory activity of the compounds according to the present disclosure on Ba/F3 proliferation expressing EGFR C797S, L861Q, G719A, S768I, L718Q, and/or G724S mutations.
For Ba/F3 cells, RPMI-1640 containing 10% FBS and 5 ng/ml IL-3 (R&D Systems) was used. Transduced Ba/F3 cells were cultured after adding 1 μg/ml puromycin (Invitrogen) to the same medium.
At 24 hours before treatment with the compounds, 3000 to 5000 cells were aliquoted into each well of a white clear bottom 96 well plate (Corning). The compounds were diluted in dimethyl sulfoxide (3 times dilution, 12 concentrations in total), and injected in an amount of 1 μl so that the final concentration was 0.2 nM to 5 uM. For measurement of living cells, after 72 hours of compound treatment, the cells were stored at room temperature for 10 min using CellTiter-Glo luminescentcell-viability reagent (Promega), and then luminescence intensity was measured using a reader (SynergyNeo, Biotek). Each test was repeated three times. Result values were calculated as the cell growth rate (%) compared to the control. The graphs were created using GraphPad Prism version 8.3.0 program and the GI50 values were calculated.

Row | SMILES | GI50
1 | COc1cc(Nc2cc(N3OCC[C@@H]3c3cc(F)cc(F)c3)ncn2)ccc1N1CCC(N2CCN(C)CC2)CC1 [Example 26] | < 50 nM

Same assay, conditions: Mus musculus, BaF3, 72 hours of compound treatment

Row | SMILES | GI50
2 | COc1cc(N2CCC(N3CCN(C)CC3)CC2)ccc1Nc1cc(N2OCC[C@@H]2c2ccc(F)c(Cl)c2F)ncn1 [Example 130, (R)-6-(3-(3-chloro-2,4-difluorophenyl)isoxazolidin-2-yl)-N-(2-methoxy-4-(4-(4-methylpiperazin-1-yl)piperidin-1-yl)phenyl)pyrimidin-4-amine] | 50 to 500 nM
3 | COc1nc(N2CCN(C)CC2)c(-c2cnn(C)c2)cc1Nc1cc(N2OCC[C@@H]2c2cccc(F)c2F)ncn1 [Example 202, (R)-6-(3-(2,3-difluorophenyl)isoxazolidin-2-yl)-N-(2-methoxy-5-(1-methyl-1H-pyrazol-4-yl)-6-(4-methylpiperazin-1-yl)pyridin-3-yl)pyrimidin-4-amine] | < 50 nM
4 | COc1cc(N2CCSCC2)ccc1Nc1cc(N2OCC[C@@H]2c2ccccc2)ncn1 [Example 66, (R)—N-(2-methoxy-4-thiomorpholinophenyl)-6-(3-phenylisoxazolidin-2-yl)pyrimidin-4-amine] | < 50 nM
5 | Cn1cc(-c2cc(Nc3cc(N4OCC[C@@H]4c4ccccc4)ncn3)c(OCC(F)(F)F)cc2N2CCC(N3CCOCC3)CC2)cn1 [Example 165, (R)—N-(5-(1-methyl-1H-pyrazol-4-yl)-4-(4-morpholinopiperidin-1-yl)-2-(2,2,2-trifluoroethoxy)phenyl)-6-(3-phenylisoxazolidin-2-yl)pyrimidin-4-amine] | < 50 nM
6 | COc1cc(N2CCN(C)CC2)c(-c2cnn(C)c2)nc1Nc1cc(N2OCC[C@@H]2c2cccc(F)c2F)ncn1 [Example 201, (R)-6-(3-(2,3-difluorophenyl)isoxazolidin-2-yl)-N-(3-methoxy-6-(1-methyl-1H-pyrazol-4-yl)-5-(4-methylpiperazin-1-yl)pyridin-2-yl)pyrimidin-4-amine] | < 50 nM
7 | CN1CCN(Cc2cc(Nc3cc(N4OCC[C@@H]4c4cc(F)cc(F)c4)ncn3)cc(C(C)(C)C#N)c2)CC1 [Example 14, (R)-2-(3-((6-(3-(3,5-difluorophenyl)isoxazolidin-2-yl)pyrimidin-4-yl)amino)-5-((4-methylpiperazin-1-yl)methyl)phenyl)-2-methylpropanenitrile] | 50 to 500 nM
8 | COc1cc(N2CCC(N3CCN(C)CC3)CC2)ccc1Nc1cc(N2OCC[C@@H]2c2cc(F)ccc2F)ncn1 [Example 30, (R)-6-(3-(2,5-difluorophenyl)isoxazolidin-2-yl)-N-(2-methoxy-4-(4-(4-methylpiperazin-1-yl)piperidin-1-yl)phenyl)pyrimidin-4-amine] | < 50 nM
9 | COc1cc(N2CCC(N3CCN(C4CCC4)CC3)CC2)ccc1Nc1cc(N2OCC[C@@H]2c2cccc(F)c2F)ncn1 [Example 208, (R)—N-(4-(4-(4-cyclobutylpiperazin-1-yl)piperidin-1-yl)-2-methoxyphenyl)-6-(3-(2,3-difluorophenyl)isoxazolidin-2-yl)pyrimidin-4-amine] | < 50 nM
10 | COc1cc(N2CCC(N3CC[C@@H](N(C)C)C3)CC2)ccc1Nc1cc(N2OCC[C@@H]2c2cccc(F)c2F)ncn1 [Example 212, 6-((R)-3-(2,3-difluorophenyl)isoxazolidin-2-yl)-N-(4-(4-((R)-3-(dimethylamino)pyrrolidin-1-yl)piperidin-1-yl)-2-methoxyphenyl)pyrimidin-4-amine] | < 50 nM
11 | CN1CCN(c2ccc(Nc3cc(N4OCC5(CC5)[C@@H]4c4ccccc4)ncn3)cc2)CC1 [Example 231, (S)—N-(4-(4-methylpiperazin-1-yl)phenyl)-6-(7-phenyl-5-oxa-6-azaspiro[2.4]heptan-6-yl)pyrimidin-4-amine] | 50 to 500 nM
12 | COc1cc(N2CCC(N3CCN(C)CC3)CC2)ccc1Nc1cc(N2Oc3ccccc3C2c2ccccc2)ncn1 (stereo not shown) [Example 230, N-(2-methoxy-4-(4-(4-methylpiperazin-1-yl)piperidin-1-yl)phenyl)-6-(3-phenylbenzo[d]isoxazol-2 (3H)-yl)pyrimidin-4-amine] | 50 to 500 nM
13 | CN1CCN(c2ccc(Nc3cc(N4OCC[C@@H]4Cc4ccccc4)ncn3)cc2)CC1 [Example 3, (S)-6-(3-benzylisoxazolidin-2-yl)-N-(4-(4-methylpiperazin-1-yl)phenyl)pyrimidin-4-amine] | < 50 nM
14 | COc1cc(OCCN(C)C)ccc1Nc1cc(N2OCC[C@@H]2c2ccccc2)ncn1 [Example 64, (R)—N-(4-(2-(dimethylamino)ethoxy)-2-methoxyphenyl)-6-(3-phenylisoxazolidin-2-yl)pyrimidin-4-amine] | < 50 nM
15 | COc1cc(N2CCC3(CC2)CC(N(C)C)C3)c(C)cc1Nc1cc(N2OCC[C@@H]2c2ccccc2)ncn1 [Example 88, (R)-7-(5-methoxy-2-methyl-4-((6-(3-phenylisoxazolidin-2-yl)pyrimidin-4-yl)amino)phenyl)-N,N-dimethyl-7-azaspiro[3.5]nonan-2-amine] | < 50 nM
16 | COc1cc(N2CCC(N3CCN(C)[C@H](C)C3)CC2)ccc1Nc1cc(N2OCC[C@@H]2c2cccc(F)c2F)ncn1 [Example 213, 6-((R)-3-(2,3-difluorophenyl)isoxazolidin-2-yl)-N-(4-(4-((R)-3,4-dimethylpiperazin-1-yl)piperidin-1-yl)-2-methoxyphenyl)pyrimidin-4-amine] | < 50 nM
17 | COc1cc(N2CCC(N3CCN(C)CC3)CC2)ccc1Nc1cc(N2OCC[C@@H]2c2cncc(Cl)c2)ncn1 [Example 182, (R)-6-(3-(5-chloropyridin-3-yl)isoxazolidin-2-yl)-N-(2-methoxy-4-(4-(4-methylpiperazin-1-yl)piperidin-1-yl)phenyl)pyrimidin-4-amine] | < 50 nM
18 | COc1cc(N2CCC(N3CCN(C)C[C@H]3C)CC2)ccc1Nc1cc(N2OCC[C@@H]2c2cccc(F)c2F)ncn1 [Example 217, 6-((R)-3-(2,3-difluorophenyl)isoxazolidin-2-yl)-N-(4-(4-((R)-2,4-dimethylpiperazin-1-yl)piperidin-1-yl)-2-methoxyphenyl)pyrimidin-4-amine] | < 50 nM
19 | COc1cc(N2CCC(N3C[C@H]4C[C@@H]3CO4)CC2)ccc1Nc1cc(N2OCC[C@@H]2c2ccccc2)ncn1 [Example 97, N-(4-(4-((1R,4R)-2-oxa-5-azabicyclo[2.2.1]heptan-5-yl)piperidin-1-yl)-2-methoxyphenyl)-6-((R)-3-phenylisoxazolidin-2-yl)pyrimidin-4-amine] | < 50 nM
20 | CCc1cc(Nc2cc(N3OCC[C@@H]3c3ccc(F)cc3F)ncn2)c(OC)cc1N1CCC(N2CCN(C)CC2)CC1 [Example 93, (R)-6-(3-(2,4-difluorophenyl)isoxazolidin-2-yl)-N-(5-ethyl-2-methoxy-4-(4-(4-methylpiperazin-1-yl)piperidin-1-yl)phenyl)pyrimidin-4-amine] | < 50 nM
21 | CC(=O)N1CCN(c2ccc(Nc3cc(N4OCC[C@@H]4c4ccccc4)ncn3)cc2)CC1 [Example 122, (R)-1-(4-(4-((6-(3-phenylisoxazolidin-2-yl)pyrimidin-4-yl)amino)phenyl)piperazin-1-yl)ethan-1-one] | < 50 nM
22 | COc1cc(Nc2cc(N3OCC[C@@H]3c3ccc(Cl)cc3F)ncn2)ccc1N1CCC(N2CCN(C)CC2)CC1 [Example 105, (R)-6-(3-(4-chloro-2-fluorophenyl)isoxazolidin-2-yl)-N-(3-methoxy-4-(4-(4-methylpiperazin-1-yl)piperidin-1-yl)phenyl)pyrimidin-4-amine] | < 50 nM
